Tests used:
Type in all cases: functional
NCI-H23 = test: Anticancer activity against human NCI-H23 cells after 48 hrs by sulforhodamine B assay
SF-268 = test: Anticancer activity against human SF268 cells after 48 hrs by sulforhodamine B assay
MDA-MB-231 = test: Anticancer activity against human MDA-MB-231 cells after 48 hrs by sulforhodamine B assay
NCI-H226 = test: Anticancer activity against human NCI-H226 cells after 48 hrs by sulforhodamine B assay
NCI-H460 = test: Anticancer activity against human NCI-H460 cells after 48 hrs by sulforhodamine B assay
MOLT-4 = test: Anticancer activity against human MOLT4 cells after 48 hrs by sulforhodamine B assay
OVCAR-5 = test: Anticancer activity against human OVCAR5 cells after 48 hrs by sulforhodamine B assay
PC-3 = test: Anticancer activity against human PC3 cells after 48 hrs by sulforhodamine B assay
HT-29 = test: Anticancer activity against human HT-29 cells after 48 hrs by sulforhodamine B assay
A549 = test: Anticancer activity against human A549 cells after 48 hrs by sulforhodamine B assay
T47D = test: Anticancer activity against human T47D cells after 48 hrs by sulforhodamine B assay
UACC-62 = test: Anticancer activity against human UACC62 cells after 48 hrs by sulforhodamine B assay
TK-10 = test: Anticancer activity against human TK10 cells after 48 hrs by sulforhodamine B assay
SF-295 = test: Anticancer activity against human SF295 cells after 48 hrs by sulforhodamine B assay
HCC 2998 = test: Anticancer activity against human HCC2998 cells after 48 hrs by sulforhodamine B assay
OVCAR-8 = test: Anticancer activity against human OVCAR8 cells after 48 hrs by sulforhodamine B assay
CCRF-CEM = test: Anticancer activity against human CCRF-CEM cells after 48 hrs by sulforhodamine B assay
HCT-116 = test: Anticancer activity against human HCT116 cells after 48 hrs by sulforhodamine B assay
COLO 205 = test: Anticancer activity against human COLO205 cells after 48 hrs by sulforhodamine B assay
KM12 = test: Anticancer activity against human KM12 cells after 48 hrs by sulforhodamine B assay
SN12C = test: Anticancer activity against human SN12C cells after 48 hrs by sulforhodamine B assay
MCF7 = test: Anticancer activity against human MCF7 cells after 48 hrs by sulforhodamine B assay
OVCAR-3 = test: Anticancer activity against human OVCAR-3 cells after 48 hrs by sulforhodamine B assay
SR = test: Anticancer activity against human SR cells after 48 hrs by sulforhodamine B assay
SW-620 = test: Anticancer activity against human SW620 cells after 48 hrs by sulforhodamine B assay
CAKI-1 = test: Anticancer activity against human Caki1 cells after 48 hrs by sulforhodamine B assay
MDA-MB-468 = test: Anticancer activity against human MDA-MB-468 cells after 48 hrs by sulforhodamine B assay
U-251 = test: Anticancer activity against human U251 cells after 48 hrs by sulforhodamine B assay
Malme-3M = test: Anticancer activity against human MALME-3M cells after 48 hrs by sulforhodamine B assay
SNB-75 = test: Anticancer activity against human SNB75 cells after 48 hrs by sulforhodamine B assay
[1] = read-out: LC50 (the source's name)

`CCCCCCCCCCCCCCCCCC[n+]1ccn(C)c1.F[P-](F)(F)(F)(F)F` was tested, and the GI50 (NCI-H23) was 0.424 µM, the CC50 (NCI-H23; [1]) was 7.98 µM and the GI50 (SF-268) was 1.26 µM. It also gave a CC50 (SF-268; [1]) of 6.06 µM, a GI50 (MDA-MB-231) of 1.03 µM and a CC50 (MDA-MB-231; [1]) of 5.11 µM. It also gave a GI50 (NCI-H226) of 1.17 µM, an LC50 (NCI-H226) of 5.74 µM and a GI50 (NCI-H460) of 0.636 µM. For the same compound, the LC50 (NCI-H460) was 4.38 µM, the GI50 (MOLT-4) was 0.589 µM and the LC50 (MOLT-4) was > 100 µM. The GI50 (OVCAR-5) was 1.08 µM, the CC50 (OVCAR-5; [1]) was 7.24 µM and the GI50 (PC-3) was 0.286 µM. For the same compound, the CC50 (PC-3; [1]) was 3.54 µM, the GI50 (HT-29) was 0.408 µM and the CC50 (HT-29; [1]) was > 100 µM. The LC50 (concentration killing 50% of cells) (A549) was 9.37 µM, the GI50 (T47D) was 0.719 µM and the GI50 (UACC-62) was 1.18 µM. The LC50 (UACC-62) was 5.2 µM, the GI50 (TK-10) was 0.463 µM and the LC50 (TK-10) was 4.76 µM. For the same compound, the GI50 (SF-295) was 0.503 µM, the CC50 (SF-295; [1]) was 6.02 µM and the GI50 (HCC 2998) was 0.293 µM. For the same compound, the CC50 (HCC 2998; [1]) was 5.87 µM, the GI50 (OVCAR-8) was 1.3 µM and the LC50 (OVCAR-8) was 9.8 µM. For the same compound, the GI50 (CCRF-CEM) was 0.129 µM, the LC50 (CCRF-CEM) was 0.98 µM and the GI50 (HCT-116) was 0.411 µM. It also gave a GI50 (COLO 205) of 0.389 µM, a GI50 (KM12) of 0.471 µM and a CC50 (KM12; [1]) of 4 µM. The GI50 (SN12C) was 1.2 µM, the LC50 (SN12C) was 5.28 µM and the GI50 (MCF7) was 0.728 µM. For the same compound, the LC50 (50% cell kill) (MCF7) was 4.5 µM, the GI50 (OVCAR-3) was 0.453 µM and the LC50 (50% lethal concentration) (OVCAR-3) was 4.39 µM. The GI50 (SR) was 1.85 µM, the CC50 (SR; [1]) was > 100 µM and the GI50 (SW-620) was 0.519 µM. The LC50 (SW-620) was 4.32 µM, the GI50 (CAKI-1) was 0.791 µM and the LC50 (CAKI-1) was 8.9 µM. It also gave a GI50 (MDA-MB-468) of 0.159 µM, an LC50 (MDA-MB-468) of 5.11 µM and a GI50 (U-251) of 0.482 µM. The CC50 (U-251; [1]) was 4.2 µM, the GI50 (Malme-3M) was 1.02 µM and the LC50 (concentration killing 50% of cells) (Malme-3M) was 7.69 µM. It also gave a GI50 (SNB-75) of 0.991 µM and a CC50 (SNB-75; [1]) of 6.5 µM.

Source: ChEMBL document CHEMBL1153245, “A profile of the in vitro anti-tumor activity of imidazolium-based ionic liquids” (2010)
